Test results taken from patent publication US11840686B2, “Modulation of prekallikrein (PKK) expression” (Ionis Pharmaceuticals, Inc., priority 2013, dated 2023).
Strand notation (5' to 3'): a small letter for the sugar, then the base; units joined by * are phosphorothioate-linked, units joined directly phosphodiester-linked; [ ] holds rarer units or linkages, { } end groups; capitals alone tell only the bases. e = 2'-O-(2-methoxyethyl) (MOE); k = constrained ethyl (cEt); [5mC] = 5-methylcytosine; d = 2'-deoxy (DNA)

How the values were obtained:
Type in all cases: cell-based
[1] = system: human PKK mRNA; assay: Antisense inhibition of human PKK mRNA in HepaRG cells, 3,000 nM (Example 1); conditions: PKK mRNA, HepaRG cells, 3,000 nM, electroporation, ~24 h, relative to untreated control cells
Method: Antisense oligonucleotides were designed targeting a PKK nucleic acid and were tested for their effects on PKK mRNA in vitro. HepaRG™ cells, which are terminally differentiated hepatic cells derived from a human hepatic progenitor cell line and retain many characteristics of primary human hepatocytes (Lubberstedt M. et al., J. Pharmacol. Toxicol. Methods 2011 63: 59-68), were used in the screen.
The chimeric antisense oligonucleotides in the tables below were designed as 5-10-5 MOE gapmers. The gapmers are 20 nucleosides in length, wherein the central gap segment comprises of ten 2′-deoxynucleosides and is flanked by wing segments on the 5′ direction and the 3′ direction comprising five nucleosides each. Each nucleoside in the 5′ wing segment and each nucleoside in the 3′ wing segment has a 2′-O-methoxyethyl modification. The internucleoside linkages throughout each gapmer are phosphorothioate linkages. All cytosine residues throughout each gapmer are 5-methylcytosines. “Start site” indicates the 5′-most nucleoside to which the gapmer is targeted in the human gene sequence. “Stop site” indicates the 3′-most nucleoside to which the gapmer is targeted in the human gene sequence.
Cultured HepaRG™ cells at a density of 20,000 cells per well were transfected using electroporation with 3,000 nM antisense oligonucleotide. After a treatment period of approximately 24 hours, RNA was isolated from the cells and PKK mRNA levels were measured by quantitative real-time PCR. Human primer probe set RTS3454 (forward sequence […], designated herein as SEQ ID NO: 20; reverse sequence […], designated herein as SEQ ID NO: 21; probe sequence […], designated herein as SEQ ID NO: 22) was used to measure mRNA levels. PKK mRNA levels were adjusted according to total RNA content, as measured by RIBOGREEN®. The antisense oligonucleotides were tested in a series of experiments that had similar culture conditions. Results are presented as percent inhibition of PKK, relative to untreated control cells.

[2] = system: human PKK mRNA; assay: Antisense inhibition of human PKK mRNA in HepaRG cells, 1,000 nM, MOE/deoxy/cEt oligonucleotides (Example 3); conditions: HepaRG cells, 1,000 nM antisense oligonucleotide
How it was run: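 HepaRG cells at 20,000 per well electroporated with 1,000 nM 16-mer MOE/cEt/deoxy gapmers (phosphorothioate, 5-methylcytosine). After about 24 h, PKK mRNA measured by qRT-PCR with primer probe set RTS3454, normalized to RIBOGREEN total RNA. Reported as percent inhibition versus untreated cells.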

[3] = system: human PKK mRNA; assay: Dose-dependent antisense inhibition of human PKK in HepaRG cells, 0.11-3.00 uM (Example 6); conditions: for percent inhibition of PKK mRNA, 0.11 μM / percent inhibition of PKK mRNA, 0.33 μM / percent inhibition of PKK mRNA, 1.00 μM / percent inhibition of PKK mRNA, 3.00 μM: electroporation, approx. 16 hours, relative to untreated control cells; for IC50: 0.11-3.00 μM
How it was run: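 HepaRG cells were electroporated with antisense oligonucleotide at 0.11, 0.33, 1.00 or 3.00 μM. After about 16 h, PKK mRNA was quantified by qRT-PCR with primer probe set RTS3454 and normalized to total RNA by RIBOGREEN. IC50 was derived from the dose series.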

30929 (antisense eA*eA*e[5mC]*eG*eG*dT*d[5mC]*dT*dT*d[5mC]*dA*dA*dG*d[5mC]*dT*eG*eT*eT*e[5mC]*eT) [compound 30929]
% inhibition ([1]; Table 1): 59%

482586 (antisense eA*e[5mC]*e[5mC]*e[5mC]*eA*dA*d[5mC]*dA*dG*dT*dT*dG*dG*dT*dA*eT*eA*eA*eA*eT) [compound 482586]
% inhibition ([1]; Table 2): 0%

530930 (antisense eA*eA*eA*eT*eG*dA*dA*d[5mC]*dG*dG*dT*d[5mC]*dT*dT*d[5mC]*eA*eA*eG*e[5mC]*eT) [compound 530930]
% inhibition ([1]; Table 1): 17%

530931 (antisense e[5mC]*eT*eT*eA*eA*dA*dA*dA*dT*dG*dA*dA*d[5mC]*dG*dG*eT*e[5mC]*eT*eT*e[5mC]) [compound 530931]
% inhibition ([1]; Table 1): 29%

530932 (antisense eT*eG*eT*e[5mC]*eA*d[5mC]*dT*dT*dA*dA*dA*dA*dA*dT*dG*eA*eA*e[5mC]*eG*eG) [compound 530932]
% inhibition ([1]; Table 1): 52%

530934 (antisense e[5mC]*eT*eT*e[5mC]*eT*dT*dG*dG*dA*dG*dG*dT*dG*dA*dG*eT*e[5mC]*eT*e[5mC]*eT) [compound 530934]
% inhibition ([1]; Table 1): 54%

530935 (antisense eG*e[5mC]*eT*eT*eG*dA*dA*dT*dA*dA*dA*dA*dT*d[5mC]*dA*eT*eT*e[5mC]*eT*eG) [compound 530935]
% inhibition ([1]; Table 1): 0%

530936 (antisense eT*eG*e[5mC]*eT*eT*dG*d[5mC]*dT*dT*dG*dA*dA*dT*dA*dA*eA*eA*eT*e[5mC]*eA) [compound 530936]
% inhibition ([1]; Table 1): 27%

530937 (antisense eT*eA*eA*eG*eT*dT*dG*d[5mC]*dT*dT*dG*d[5mC]*dT*dT*dG*eA*eA*eT*eA*eA) [compound 530937]
% inhibition ([1]; Table 1): 0%

530938 (antisense eG*eG*eA*eA*eA*dT*dG*dA*dA*dA*dT*dA*dA*dG*dT*eT*eG*e[5mC]*eT*eT) [compound 530938]
% inhibition ([1]; Table 1): 11%

530939 (antisense eA*eA*e[5mC]*eA*eA*dG*dG*dA*dA*dA*dT*dG*dA*dA*dA*eT*eA*eA*eG*eT) [compound 530939]
% inhibition ([1]; Table 1): 0%

530940 (antisense eT*eA*eG*e[5mC]*eA*dA*dA*d[5mC]*dA*dA*dG*dG*dA*dA*dA*eT*eG*eA*eA*eA) [compound 530940]
% inhibition ([1]; Table 1): 7%

530941 (antisense eA*eA*e[5mC]*eT*eG*dT*dA*dG*d[5mC]*dA*dA*dA*d[5mC]*dA*dA*eG*eG*eA*eA*eA) [compound 530941]
% inhibition ([1]; Table 1): 22%

530942 (antisense e[5mC]*eA*eG*eG*eA*dA*dA*d[5mC]*dT*dG*dT*dA*dG*d[5mC]*dA*eA*eA*e[5mC]*eA*eA) [compound 530942]
% inhibition ([1]; Table 1): 22%

530943 (antisense eA*eT*e[5mC]*e[5mC]*eA*d[5mC]*dA*dG*dG*dA*dA*dA*d[5mC]*dT*dG*eT*eA*eG*e[5mC]*eA) [compound 530943]
% inhibition ([1]; Table 1): 56%

530944 (antisense e[5mC]*eA*eG*eA*e[5mC]*dA*dT*d[5mC]*d[5mC]*dA*d[5mC]*dA*dG*dG*dA*eA*eA*e[5mC]*eT*eG) [compound 530944]
% inhibition ([1]; Table 1): 0%

530945 (antisense eA*eT*e[5mC]*e[5mC]*e[5mC]*d[5mC]*dA*d[5mC]*d[5mC]*dT*d[5mC]*dT*dG*dA*dA*eG*eA*eA*eG*eG) [compound 530945]
% inhibition ([1]; Table 1): 0%

530946 (antisense eT*eA*e[5mC]*eA*eT*d[5mC]*d[5mC]*d[5mC]*d[5mC]*dA*d[5mC]*d[5mC]*dT*d[5mC]*dT*eG*eA*eA*eG*eA) [compound 530946]
% inhibition ([1]; Table 1): 0%

530947 (antisense eG*eA*eA*eG*e[5mC]*dT*dA*d[5mC]*dA*dT*d[5mC]*d[5mC]*d[5mC]*d[5mC]*dA*e[5mC]*e[5mC]*eT*e[5mC]*eT) [compound 530947]
% inhibition ([1]; Table 1): 27%

530948 (antisense eA*e[5mC]*eA*eT*eG*dG*dA*dA*dG*d[5mC]*dT*dA*d[5mC]*dA*dT*e[5mC]*e[5mC]*e[5mC]*e[5mC]*eA) [compound 530948]
% inhibition ([1]; Table 1): 35%

530949 (antisense eG*eG*eT*eG*eT*dA*d[5mC]*dA*dT*dG*dG*dA*dA*dG*d[5mC]*eT*eA*e[5mC]*eA*eT) [compound 530949]
% inhibition ([1]; Table 1): 31%

530950 (antisense eA*e[5mC]*e[5mC]*eT*eT*dG*dG*dG*dT*dG*dG*dA*dA*dT*dG*eT*eG*e[5mC]*eA*e[5mC]) [compound 530950]
% inhibition ([1]; Table 1): 47%

548558 (antisense eA*eA*k[5mC]*dA*dT*dT*dG*dT*dG*dT*dA*dG*d[5mC]*kT*kG*e[5mC]) [compound 548558]
% inhibition ([2]; Table 29): 75% | percent inhibition of PKK mRNA, 0.11 μM [3]: 53% | percent inhibition of PKK mRNA, 0.33 μM [3]: 61% | percent inhibition of PKK mRNA, 1.00 μM [3]: 78% | percent inhibition of PKK mRNA, 3.00 μM [3]: 95%

548570 (eA*eT*kG*d[5mC]*d[5mC]*dT*dT*dG*dT*dG*d[5mC]*d[5mC]*dT*kA*kT*eT; antisense) [compound 548570]
% inhibition ([2]; Table 29): 74% | IC50 [3]: 400 nM | percent inhibition of PKK mRNA, 0.11 μM [3]: 20% | percent inhibition of PKK mRNA, 0.33 μM [3]: 40% | percent inhibition of PKK mRNA, 1.00 μM [3]: 70% | percent inhibition of PKK mRNA, 3.00 μM [3]: 94%

548583 (eG*eG*kG*dA*dA*dT*dT*dT*dA*dT*dG*d[5mC]*dT*kG*k[5mC]*e[5mC]; antisense) [compound 548583]
% inhibition ([2]; Table 29): 79% | IC50 [3]: 200 nM | percent inhibition of PKK mRNA, 0.11 μM [3]: 43% | percent inhibition of PKK mRNA, 0.33 μM [3]: 46% | percent inhibition of PKK mRNA, 1.00 μM [3]: 93% | percent inhibition of PKK mRNA, 3.00 μM [3]: 88%

548655 (antisense e[5mC]*e[5mC]*k[5mC]*dG*dA*dG*dG*dT*d[5mC]*dA*d[5mC]*dA*dT*kA*kA*eT) [compound 548655]
% inhibition ([2]; PKK mRNA, Table 31): 56% | IC50 [3]: > 3000 nM | percent inhibition of PKK mRNA, 0.11 μM [3]: 0% | percent inhibition of PKK mRNA, 0.33 μM [3]: 0% | percent inhibition of PKK mRNA, 1.00 μM [3]: 8% | percent inhibition of PKK mRNA, 3.00 μM [3]: 33%

548667 (antisense eT*eG*kG*d[5mC]*dA*dA*dG*d[5mC]*dT*dA*d[5mC]*d[5mC]*dT*kT*k[5mC]*eT) [compound 548667]
% inhibition ([2]; PKK mRNA, Table 31): 51% | IC50 [3]: 700 nM | percent inhibition of PKK mRNA, 0.11 μM [3]: 0% | percent inhibition of PKK mRNA, 0.33 μM [3]: 37% | percent inhibition of PKK mRNA, 1.00 μM [3]: 73% | percent inhibition of PKK mRNA, 3.00 μM [3]: 86%

548668 (antisense eG*eG*kG*dA*dG*d[5mC]*dT*dT*dT*d[5mC]*dA*dT*dG*kG*k[5mC]*eT) [compound 548668]
% inhibition ([2]; PKK mRNA, Table 31): 68% | IC50 [3]: 700 nM | percent inhibition of PKK mRNA, 0.11 μM [3]: 10% | percent inhibition of PKK mRNA, 0.33 μM [3]: 30% | percent inhibition of PKK mRNA, 1.00 μM [3]: 61% | percent inhibition of PKK mRNA, 3.00 μM [3]: 84%
